Assay results published in ChEMBL document CHEMBL3132750, “4-Chlorocolchicine derivatives bearing a thiourea side chain at the C-7 position as potent anticancer agents” (Medchemcomm, 2014).

Tests used:
[1] = tested on: Mus musculus; experiment: Toxicity in human HCT116 cells xenografted in BALB/C nude mouse assessed as mouse mortality at 40 mg/kg, iv administered three times on days 1, 5, and 9; format: organism-based, HCT-116; design: dose 40 mg/kg, route intravenous; conditions: in vivo
[2] = tested on: HCT-116; experiment: Antitumor activity against human HCT116 cells xenografted in BALB/C nude mouse assessed as tumor growth inhibition rate at 40 mg/kg, iv administered three times on days 1, 5, and 9; format: functional; conditions: read-out: TGI
[3] = tested on: Mus musculus; experiment: Toxicity in human HCT116 cells xenografted in BALB/C nude mouse assessed as weight loss at 20 mg/kg, iv administered three times on days 1, 5, and 9; format: organism-based, HCT-116; design: dose 20 mg/kg, route intravenous; conditions: in vivo
[4] = tested on: HT-29; experiment: Cytotoxicity against human HT-29 cells assessed as inhibition of cell proliferation after 96 hrs; format: functional, cell-based; conditions: HT-29, 96 h
[5] = biological target: Tubulin (Sus scrofa, UniProt P02554+P02550); experiment: Inhibition of tubulin polymerization assessed as reduction in tubulin assembly after 5 mins using pig microtubule protein by spectrophotometry; format: protein assay
[6] = tested on: A549; experiment: Cytotoxicity against human A549 cells assessed as inhibition of cell proliferation after 96 hrs; format: functional, cell-based; conditions: A549, 96 h
[7] = tested on: HCT-116; experiment: Antitumor activity against human HCT116 cells xenografted in BALB/C nude mouse assessed as tumor growth inhibition rate at 20 mg/kg, iv administered three times on days 1, 5, and 9; format: functional; conditions: read-out: TGI
[8] = tested on: Mus musculus; experiment: Toxicity in human HCT116 cells xenografted in BALB/C nude mouse assessed as mouse mortality at 20 mg/kg, iv administered three times on days 1, 5, and 9; format: organism-based, HCT-116; design: dose 20 mg/kg, route intravenous; conditions: in vivo
[9] = Metabolic stability in BALB/c mouse hepatic microsomes assessed per mg of microsomal protein at 1 umol/L preincubated for 5 mins by LC-MS/MS method; format: ADME, Liver, Microsome; conditions: 1 µM
[10] = tested on: HCT-116; experiment: Cytotoxicity against human HCT116 cells assessed as inhibition of cell proliferation after 96 hrs; format: functional, cell-based; conditions: HCT-116, 96 h
[11] = tested on: Mus musculus; experiment: Toxicity in human HCT116 cells xenografted in BALB/C nude mouse assessed as weight loss at 40 mg/kg, iv administered three times on days 1, 5, and 9; format: organism-based, HCT-116; design: dose 40 mg/kg, route intravenous; conditions: in vivo
[12] = tested on: HCT-116; experiment: Antitumor activity against human HCT116 cells xenografted in BALB/C nude mouse assessed as tumor growth inhibition rate at 25 mg/kg, iv administered three times on days 1, 5, and 9; format: functional; conditions: read-out: TGI
[13] = tested on: HCT-116; experiment: Antitumor activity against human HCT116 cells xenografted in BALB/C nude mouse assessed as tumor growth inhibition rate at 50 mg/kg, iv administered three times on days 1, 5, and 9; format: functional; conditions: read-out: TGI
[14] = tested on: Mus musculus; experiment: Toxicity in human HCT116 cells xenografted in BALB/C nude mouse assessed as mouse mortality at 25 mg/kg, iv administered three times on days 1, 5, and 9; format: organism-based, HCT-116; design: dose 25 mg/kg, route intravenous; conditions: in vivo
[15] = tested on: Mus musculus; experiment: Toxicity in human HCT116 cells xenografted in BALB/C nude mouse assessed as mouse mortality at 50 mg/kg, iv administered three times on days 1, 5, and 9; format: organism-based, HCT-116; design: dose 50 mg/kg, route intravenous; conditions: in vivo
[16] = tested on: Mus musculus; experiment: Toxicity in human HCT116 cells xenografted in BALB/C nude mouse assessed as weight loss at 50 mg/kg, iv administered three times on days 1, 5, and 9; format: organism-based, HCT-116; design: dose 50 mg/kg, route intravenous; conditions: in vivo
[17] = tested on: Mus musculus; experiment: Toxicity in human HCT116 cells xenografted in BALB/C nude mouse assessed as weight loss at 25 mg/kg, iv administered three times on days 1, 5, and 9; format: organism-based, HCT-116; design: dose 25 mg/kg, route intravenous; conditions: in vivo
[18] = tested on: Mus musculus; experiment: Toxicity in human HCT116 cells xenografted in BALB/C nude mouse assessed as weight loss at 10 mg/kg, iv administered three times on days 1, 5, and 9; format: organism-based, HCT-116; design: dose 10 mg/kg, route intravenous; conditions: in vivo
[19] = tested on: Mus musculus; experiment: Toxicity in human HCT116 cells xenografted in BALB/C nude mouse assessed as mouse mortality at 10 mg/kg, iv administered three times on days 1, 5, and 9; format: organism-based, HCT-116; design: dose 10 mg/kg, route intravenous; conditions: in vivo
[20] = tested on: HCT-116; experiment: Antitumor activity against human HCT116 cells xenografted in BALB/C nude mouse assessed as tumor growth inhibition rate at 10 mg/kg, iv administered three times on days 1, 5, and 9; format: functional; conditions: read-out: TGI

CCNC(=S)N[C@H]1CCc2c(Cl)c(OC)c(OC)c(OC)c2-c2ccc(OC)c(=O)cc21
Activity [1]: Non-toxic
inhibition in vivo at 40 mg/kg [2]: 62.6%
Activity [3]: Non-toxic
IC50 [4]: 8.6 nM
IC50 [5]: 2360 nM
IC50 [6]: 37.9 nM
inhibition in vivo at 20 mg/kg [7]: 44.4%
Activity [8]: Non-toxic
Intrinsic clearance [9]: 124 µL/min/mg
IC50 [10]: 7.9 nM
Activity [11]: Non-toxic

CCN(CC)C(=S)N[C@H]1CCc2c(Cl)c(OC)c(OC)c(OC)c2-c2ccc(OC)c(=O)cc21
inhibition in vivo at 25 mg/kg [12]: 29.5%
inhibition in vivo at 50 mg/kg [13]: 54.6%
Activity [14]: Non-toxic
IC50 [4]: 6.1 nM
Activity [15]: Non-toxic
IC50 [6]: 10.1 nM
Activity [16]: Non-toxic
Intrinsic clearance [9]: 541 µL/min/mg
Activity [17]: Non-toxic
IC50 [10]: 6.9 nM

COc1c(Cl)c2c(c(OC)c1OC)-c1ccc(OC)c(=O)cc1[C@@H](NC(=S)N1CCOCC1)CC2
inhibition in vivo at 25 mg/kg [12]: 31.3%
inhibition in vivo at 50 mg/kg [13]: 52.7%
Activity [14]: Non-toxic
IC50 [4]: 7.2 nM
Activity [15]: Non-toxic
IC50 [6]: 44.9 nM
Activity [16]: Non-toxic
Intrinsic clearance [9]: 61 µL/min/mg
Activity [17]: Non-toxic
IC50 [10]: 9.1 nM

COc1c(Cl)c2c(c(OC)c1OC)-c1ccc(OC)c(=O)cc1[C@@H](NC(=S)Nc1ccc(N(C)C)cc1)CC2
Activity [18]: Non-toxic
Activity [19]: Non-toxic
Activity [3]: Non-toxic
IC50 [4]: 0.3 nM
IC50 [6]: 1.8 nM
inhibition in vivo at 20 mg/kg [7]: 52.5%
inhibition in vivo at 10 mg/kg [20]: 32.6%
Activity [8]: Non-toxic
Intrinsic clearance [9]: 152 µL/min/mg
IC50 [10]: 1.1 nM
